Measurements published in ChEMBL document CHEMBL5260849, “Current advances in Vibrio harveyi quorum sensing as drug discovery targets” (Eur J Med Chem, 2020).
Values after ≈ are worked out from the molar mass of the structure shown.

Experiments:
Vibrio harveyi [1] = assay: Antibacterial activity against Vibrio harveyi infected […] franciscana assessed as increase in survival rate at 20 uM and measured after 60 hrs by light microscopy; format: functional
[2] = Inhibition of quorum-sensing system in Vibrio harveyi assessed as inhibition of bioluminescence at 20 uM by bioluminescence assay
Vibrio harveyi [3] = assay: Antibacterial activity against Vibrio harveyi MTCC 3438 assessed as bacterial growth inhibition incubated for 24 hrs by broth microdilution assay; format: functional
Vibrio harveyi [4] = assay: Antibacterial activity against Vibrio harveyi MTCC 3438 assessed as reduction in cell surface hydrophobicity at 250 ug/ml for 10 mins by BATH assay; format: functional; details: MTCC 3438, 10 min
Vibrio harveyi [5] = assay: Inhibition of biofilm formation in Vibrio harveyi MTCC 3438 assessed as reduction in exopolysaccharides production at 250 ug/ml for 24 hrs by spectrophotometric assay; format: functional
Vibrio harveyi [6] = assay: Antibiofilm activity against Vibrio harveyi MTCC 3438 assessed as inhibition of biofilm formation at 250 ug/ml for 16 hrs by crystal violet staining based spectrophotometric assay; format: functional
[7] = Inhibition of quorum sensing system in Vibrio harveyi MTCC 3438 assessed fold decrease in luxR expression at 250 ug/ml by qPCR assay; details: dose 250.0 µg/ml
[8] = Inhibition of quorum sensing system in Vibrio harveyi MTCC 3438 assessed fold decrease in luxQ expression at 250 ug/ml by qPCR assay; details: dose 250.0 µg/ml
[9] = Inhibition of quorum sensing system in Vibrio harveyi MTCC 3438 assessed fold decrease in luxS expression at 250 ug/ml by qPCR assay; details: dose 250.0 µg/ml
Vibrio harveyi [10] = assay: Antibacterial activity against Vibrio harveyi MTCC 3438 infected Litopenaeus vannamei larvae assessed as increase in survival rate at 250 ug/ml and measured upto 96 hrs; format: functional
[11] = Inhibition of quorum sensing system in Vibrio harveyi MTCC 3438 assessed fold decrease in luxO expression at 250 ug/ml by qPCR assay; details: dose 250.0 µg/ml
[12] = Inhibition of quorum sensing system in Vibrio harveyi MTCC 3438 assessed fold decrease in luxP expression at 250 ug/ml by qPCR assay; details: dose 250.0 µg/ml
Vibrio harveyi [13] = assay: Inhibition of biofilm formation in Vibrio harveyi BB152 at 200 ug/ml for 24 hrs by crystal violet assay; format: functional
Vibrio harveyi [14] = assay: Antimicrobial activity against Vibrio harveyi BB152 assessed as decrease in swimming motility at 200 ug/ml incubated for 15 hrs by agar plate reader analysis; format: functional; design: scale not given: the % may be the effect or the level left; details: dose 200 µg/ml
[15] = Inhibition of quorum-sensing system in Vibrio harveyi MM77 assessed as inhibition of QS-mediated bioluminescence at 0.02 to 200 uM incubated for 18 hrs by Luminescence assay; details: dose 0.02-200 µM
Vibrio harveyi [16] = assay: Inhibition of biofilm formation in Vibrio harveyi MM77 assessed as inhibition of exopolysaccharides production at 200 uM incubated for 24 hrs by Fluorescence assay; format: functional
[17] = Inhibition of quorum-sensing system in Vibrio harveyi BB152 assessed as inhibition of QS-mediated bioluminescence at 0.02 to 200 uM incubated for 18 hrs by Luminescence assay; details: dose 0.02-200 µM
[18] = Inhibition of quorum-sensing system in Vibrio harveyi BB170 assessed as inhibition of QS-mediated bioluminescence at 0.02 to 200 uM incubated for 18 hrs by Luminescence assay; details: dose 0.02-200 µM
Vibrio harveyi [19] = assay: Antimicrobial activity against Vibrio harveyi BB120 assessed as decrease in swimming motility at 200 ug/ml incubated for 15 hrs by agar plate reader analysis; format: functional; design: scale not given: the % may be the effect or the level left; details: dose 200 µg/ml
Vibrio harveyi [20] = assay: Antimicrobial activity against Vibrio harveyi MM30 assessed as decrease in swimming motility at 200 ug/ml incubated for 15 hrs by agar plate reader analysis; format: functional; design: scale not given: the % may be the effect or the level left; details: dose 200 µg/ml
Vibrio harveyi [21] = assay: Antibiofilm activity against Vibrio harveyi BB170 assessed as inhibition of biofilm formation at 200 uM by Crystal violet biofilm assay; format: functional

## O=S(=O)(c1ccc(Br)s1)n1cccn1
Vibrio harveyi [1]
  survival at 20 µM: 85.5%
[2]
  inhibition: 100%

## O=C(O)[C@@H]1[C@H](C(=O)O)[C@@H]2C=C[C@H]1C2
Vibrio harveyi [3]
  MIC: 8 µg/mL (≈ 43.9 µM)

## Cc1cc(C(C)(C)C)c(O)c(C(C)(C)C)c1 [BUTYLATED HYDROXYTOLUENE]
Vibrio harveyi [4]
  inhibition at 250 µg/mL: 82%
Vibrio harveyi [5]
  inhibition at 250 µg/mL: 65%
Vibrio harveyi [6]
  inhibition at 250 µg/mL: 80%
[7]
  fold change (FC): 1.9
[8]
  fold change (FC): 0.5
[9]
  fold change (FC): 0.9
Vibrio harveyi [10]
  survival at 250 µg/mL: 75%
[11]
  fold change (FC): 0.1
[12]
  fold change (FC): 0.7

## CCCCCCC(C)(C)c1cc(O)c2c(c1)OC(C)(C)[C@@H]1CC=C(CO)C[C@@H]21
Vibrio harveyi [13]
  inhibition at 200 µg/mL: 80%
Vibrio harveyi [14]
  Activity: 85%
[15]
  inhibition: 95%
Vibrio harveyi [16]
  inhibition at 200 µM: 75%
[17]
  inhibition: 98%
[18]
  inhibition: 85%
Vibrio harveyi [19]
  Activity: 80%
Vibrio harveyi [20]
  Activity: 95%

## CC(=O)C(=O)C(F)CO (stereo unspecified)
Vibrio harveyi [21]
  inhibition at 200 µM: 90%
